This note sets out measurements from US10464911B2, “1,3,4-oxadiazole sulfamide derivative compounds as histone deacetylase 6 inhibitor, and the pharmaceutical composition comprising the same” (Chong Kun Dang Pharmaceutical Corp., priority 2015, dated 2019).

The target of assay [1] is human recombinant HDAC6 (Homo sapiens (Human), UniProt Q9UBN7). The assay can be described thus: HDAC6 enzyme activity inhibition assay (HDAC Fluorimetric Drug Discovery Kit). Particulars: for HDAC6 selectivity (fold): HDAC6 versus HDAC1; for IC50: human recombinant HDAC6, same protocol as HDAC1 test. It is filed as biochemical. In short, it runs like this: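 Recombinant human HDAC1 or HDAC6 (0.3 μg) reacted with 10 μM Fluor de Lys-SIRT1 substrate and 5-fold compound dilutions for 60 min at 30 °C, followed by 30 min developer. Fluorescence read at Ex 360/Em 460; IC50 calculated from the values.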

For assay [2], the target named is human recombinant HDAC1 (Homo sapiens (Human), UniProt Q13547). The assay can be described thus: HDAC1 enzyme activity inhibition assay (HDAC Fluorimetric Drug Discovery Kit). The format is biochemical. Conditions: human recombinant HDAC1, Fluor de Lys substrate 10 μM, 60 minutes. As to the method:
In order to examine the HDAC6 selectivity of the compounds of formula I of the present invention by HDAC1 and HDAC6 enzymatic activity inhibition assays, an experiment was performed using a conventional substance as a control.
HDAC enzyme activity was measured using a HDAC Fluorimetric Drug Discovery Kit (BML-AK511, 516, Enzo Life Science). For the HDAC1 enzyme activity test, human recombinant HDAC1 (BML-SE456) was used as an enzyme source, and Fluor de Lys®-“SIRT1 (BNL-KI177) was used as a substrate. A 5-fold dilution of the compound was seeded into a 96-well plate, and then 0.3 μg of the enzyme and 10 μM of the substrate were added to each well of the plate and allowed to react at 30 for 60 minutes. Then, Fluor de Lys®-Developer II (BML-KI176) was added thereto and allowed to react for 30 minutes, after which the fluorescence value (Ex 360, Em 460) was measured using a multi-plate reader (Flexstation 3, Molecular Device). The HDAC6 enzyme was tested using human recombinant HDAC6 (382180) (Calbiochem) according to the same protocol as the HDAC1 enzyme activity test method. Based on the resulting values, each IC50 value was calculated using GraphPad Prism4.0 program.

Each structure is given as a SMILES string.

Sequence of human recombinant HDAC6 (Q9UBN7 whole entry): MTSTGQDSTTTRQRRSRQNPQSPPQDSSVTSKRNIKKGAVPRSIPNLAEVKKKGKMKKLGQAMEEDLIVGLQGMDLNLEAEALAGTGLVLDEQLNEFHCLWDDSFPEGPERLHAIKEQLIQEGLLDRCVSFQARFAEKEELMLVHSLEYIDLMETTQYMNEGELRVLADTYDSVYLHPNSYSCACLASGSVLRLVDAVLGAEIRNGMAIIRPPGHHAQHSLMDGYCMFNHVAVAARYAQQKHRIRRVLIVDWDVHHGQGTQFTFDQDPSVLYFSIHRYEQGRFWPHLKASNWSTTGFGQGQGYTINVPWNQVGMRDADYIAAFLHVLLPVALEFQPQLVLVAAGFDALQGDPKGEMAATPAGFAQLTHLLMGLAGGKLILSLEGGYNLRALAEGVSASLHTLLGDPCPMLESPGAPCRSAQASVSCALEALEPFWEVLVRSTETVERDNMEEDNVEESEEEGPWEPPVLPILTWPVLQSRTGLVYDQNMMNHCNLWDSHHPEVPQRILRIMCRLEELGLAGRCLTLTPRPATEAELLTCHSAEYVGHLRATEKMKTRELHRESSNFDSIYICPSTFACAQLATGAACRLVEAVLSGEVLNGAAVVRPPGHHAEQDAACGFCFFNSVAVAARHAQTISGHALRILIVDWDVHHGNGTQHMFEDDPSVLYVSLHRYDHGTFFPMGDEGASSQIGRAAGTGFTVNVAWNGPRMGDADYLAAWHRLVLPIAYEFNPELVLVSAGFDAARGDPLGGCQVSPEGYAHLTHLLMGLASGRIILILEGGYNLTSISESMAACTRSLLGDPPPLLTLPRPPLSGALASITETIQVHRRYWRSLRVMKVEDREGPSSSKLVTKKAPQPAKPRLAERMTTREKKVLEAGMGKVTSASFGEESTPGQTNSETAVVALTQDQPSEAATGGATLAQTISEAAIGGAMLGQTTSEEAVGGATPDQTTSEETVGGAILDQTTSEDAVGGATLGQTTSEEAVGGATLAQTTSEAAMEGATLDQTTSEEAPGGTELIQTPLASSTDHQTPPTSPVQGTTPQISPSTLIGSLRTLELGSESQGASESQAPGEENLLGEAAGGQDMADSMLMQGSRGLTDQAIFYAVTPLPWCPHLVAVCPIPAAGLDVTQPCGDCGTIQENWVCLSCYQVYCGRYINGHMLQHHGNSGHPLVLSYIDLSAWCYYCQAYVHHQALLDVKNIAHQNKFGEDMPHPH
Sequence of human recombinant HDAC1 (Q13547 whole entry): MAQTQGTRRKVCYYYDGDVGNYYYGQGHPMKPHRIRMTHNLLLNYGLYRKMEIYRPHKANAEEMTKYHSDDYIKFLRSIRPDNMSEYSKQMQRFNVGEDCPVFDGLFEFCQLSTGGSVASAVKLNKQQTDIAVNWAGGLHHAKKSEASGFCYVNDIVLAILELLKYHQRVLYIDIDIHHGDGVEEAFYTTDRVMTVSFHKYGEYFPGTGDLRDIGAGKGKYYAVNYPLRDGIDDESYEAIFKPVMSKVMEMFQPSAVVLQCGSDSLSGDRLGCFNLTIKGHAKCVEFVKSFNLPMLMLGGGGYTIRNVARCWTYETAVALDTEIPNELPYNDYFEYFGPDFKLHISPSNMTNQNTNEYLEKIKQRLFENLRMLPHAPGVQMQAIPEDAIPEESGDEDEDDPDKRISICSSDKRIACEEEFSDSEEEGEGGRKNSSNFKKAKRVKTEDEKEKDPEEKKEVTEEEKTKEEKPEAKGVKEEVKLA

As to `Cl.O=S(=O)(N1CCNCC1)N(Cc1ccc(-c2nnc(C(F)(F)F)o2)cc1F)c1ccccc1` [Compound 11293, N-(2-fluoro-4-(5-(trifluoromethyl)-1,3,4-oxadiazol-2-yl)benzyl)-N-phenylpiperazine-1-sulfonamide Hydrochloride], in assay [1], the “HDAC6 selectivity (fold)” value is 1156 fold and the IC50 – broadly, the concentration that inhibits the measured activity by half – was determined as 66 nM. Moreover, the half-maximal inhibitory concentration (IC50) in assay [2] was 76000 nM.
For `Cl.O=S(=O)(N1CCNCC1)N(Cc1ccc(-c2nnc(C(F)(F)F)o2)cc1F)c1cccc(F)c1` [Compound 11309, N-(2-fluoro-4-(5-(trifluoromethyl)-1,3,4-oxadiazol-2-yl)benzyl)-N-(3-fluorophenyl)piperazine-1-sulfonamide Hydrochloride], in assay [1], the “HDAC6 selectivity (fold)” value was determined as 710 fold and the IC50 turned out to be 58 nM. Moreover, the IC50 in assay [2] was determined as 41500 nM.
The corresponding values for `O=S1(=O)CCN(S(=O)(=O)N(Cc2ccc(-c3nnc(C(F)F)o3)cn2)c2ccc(F)c(Cl)c2)CC1` [Compound 11498, N-(3-chloro-4-fluorophenyl)-N-((5-(5-(difluoromethyl)-1,3,4-oxadiazol-2-yl)pyridin-2-yl)methyl)thiomorpholine-4-sulfonamide 1,1-dioxide] are 2141 fold, 23 nM and 49200 nM.
The corresponding values for `O=S(=O)(N1CCN(C2COC2)CC1)N(Cc1ccc(-c2nnc(C(F)(F)F)o2)cc1F)c1ccccc1` [Compound 11527, N-(2-fluoro-4-(5-(trifluoromethyl)-1,3,4-oxadiazol-2-yl)benzyl)-4-(oxetan-3-yl)-N-phenylpiperazine-1-sulfonamide] are 627 fold, 76 nM and 47700 nM.
The corresponding values for `O=S(=O)(N1CCN(C2COC2)CC1)N(Cc1ccc(-c2nnc(C(F)(F)F)o2)cn1)c1ccccc1` [Compound 11528, 4-(oxetan-3-yl)-N-phenyl-N-((5-(5-(trifluoromethyl)-1,3,4-oxadiazol-2-yl)pyridin-2-yl)methyl)piperazine-1-sulfonamide] are 527 fold, 79 nM and 41600 nM.
Consider `O=S(=O)(N1CCN(C2COC2)CC1)N(Cc1ccc(-c2nnc(C(F)F)o2)cc1)c1ccc(F)c(Cl)c1` [Compound 11653, N-(3-chloro-4-fluorophenyl)-N-(4-(5-(difluoromethyl)-1,3,4-oxadiazol-2-yl)benzyl)-4-(oxetan-3-yl)piperazine-1-sulfonamide], for which, in assay [1], the “HDAC6 selectivity (fold)” value turned out to be 1214 fold and the half-maximal inhibitory concentration (IC50) stood at 43 nM. Besides, the IC50 in assay [2] was determined as 52400 nM.
For `CN1CCN(S(=O)(=O)N(Cc2ccc(-c3nnc(C(F)F)o3)cc2)c2ccc(F)c(Cl)c2)CC1` [Compound 11654, N-(3-chloro-4-fluorophenyl)-N-(4-(5-(difluoromethyl)-1,3,4-oxadiazol-2-yl)benzyl)-4-methylpiperazine-1-sulfonamide], the “HDAC6 selectivity (fold)” value in assay [1] stood at 1996 fold. Moreover, the values for the IC50 in assay [1] and in assay [2] were 36 nM and 71500 nM, respectively.
With `CC(=O)N1[C@H](C)CN(S(=O)(=O)N(Cc2ccc(-c3nnc(C(F)F)o3)cn2)c2ccccc2)C[C@@H]1C` [Compound 11659, (3S,5R)-4-acetyl-N-((5-(5-(difluoromethyl)-1,3,4-oxadiazol-2-yl)pyridin-2-yl)methyl)-3,5-dimethyl-N-phenylpiperazine-1-sulfonamide], in assay [1], the “HDAC6 selectivity (fold)” value was 2753 fold and the IC50 was 26 nM. Further, the IC50 in assay [2] stood at 72400 nM.
The corresponding values for `CC(=O)N1[C@H](C)CN(S(=O)(=O)N(Cc2ccc(-c3nnc(C(F)F)o3)cc2)c2cccnc2)C[C@@H]1C` [Compound 11660, (3S,5R)-4-acetyl-N-(4-(5-(difluoromethyl)-1,3,4-oxadiazol-2-yl)benzyl)-3,5-dimethyl-N-(pyridin-3-yl)piperazine-1-sulfonamide] are 1206 fold, 63 nM and 76500 nM.
Turning to `O=S(=O)(N1CCC2(CC1)CN(C1CCC1)C2)N(Cc1ccc(-c2nnc(C(F)F)o2)cc1)c1ccccc1` [Compound 11789, 2-cyclobutyl-N-(4-(5-(difluoromethyl)-1,3,4-oxadiazol-2-yl)benzyl)-N-phenyl-2,7-diazaspiro[3.5]nonane-7-sulfonamide], in assay [1], the “HDAC6 selectivity (fold)” value is given as 819 fold and the IC50 stood at 122 nM.
The corresponding values for `Cc1cccc(N(Cc2ccc(-c3nnc(C(F)F)o3)cn2)S(=O)(=O)N2CCN(C)[C@H](C)C2)c1` [Compound 11823, (R)—N-((5-(5-(difluoromethyl)-1,3,4-oxadiazol-2-yl)pyridin-2-yl)methyl)-3,4-dimethyl-N-(m-tolyl)piperazine-1-sulfonamide] are 2083 fold and 48 nM.
The corresponding values for `Cc1cccc(N(Cc2ccc(-c3nnc(C(F)F)o3)cn2)S(=O)(=O)N2CCN(C3COC3)[C@H](C)C2)c1` [Compound 11824, (R)—N-((5-(5-(difluoromethyl)-1,3,4-oxadiazol-2-yl)pyridin-2-yl)methyl)-3-methyl-4-(oxetan-3-yl)-N-(m-tolyl)piperazine-1-sulfonamide] are 2000 fold and 50 nM.
Take `C[C@@H]1CN(S(=O)(=O)N(Cc2ccc(-c3nnc(C(F)F)o3)cn2)c2cccc(Cl)c2)CCN1C` [Compound 11825, (R)—N-(3-chlorophenyl)-N-((5-(5-(difluoromethyl)-1,3,4-oxadiazol-2-yl)pyridin-2-yl)methyl)-3,4-dimethylpiperazine-1-sulfonamide]: in assay [1], the “HDAC6 selectivity (fold)” value was 2777 fold and the IC50 amounted to 36 nM.
The corresponding values for `C[C@@H]1CN(S(=O)(=O)N(Cc2ccc(-c3nnc(C(F)F)o3)cn2)c2cccc(Cl)c2)CCN1C1COC1` [Compound 11826, (R)—N-(3-chlorophenyl)-N-((5-(5-(difluoromethyl)-1,3,4-oxadiazol-2-yl)pyridin-2-yl)methyl)-3-methyl-4-(oxetan-3-yl)piperazine-1-sulfonamide] are 2439 fold and 41 nM.
The corresponding values for `Cc1cccc(N(Cc2ccc(-c3nnc(C(F)F)o3)cn2)S(=O)(=O)N2CCN(C)[C@@H](C)C2)c1` [Compound 11827, (S)—N-((5-(5-(difluoromethyl)-1,3,4-oxadiazol-2-yl)pyridin-2-yl)methyl)-3,4-dimethyl-N-(m-tolyl)piperazine-1-sulfonamide] are 1923 fold and 52 nM.
`Cc1cccc(N(Cc2ccc(-c3nnc(C(F)F)o3)cn2)S(=O)(=O)N2CCN(C3COC3)[C@@H](C)C2)c1` [Compound 11828, (S)—N-((5-(5-(difluoromethyl)-1,3,4-oxadiazol-2-yl)pyridin-2-yl)methyl)-3-methyl-4-(oxetan-3-yl)-N-(m-tolyl)piperazine-1-sulfonamide]: in assay [1], the “HDAC6 selectivity (fold)” value is recorded as 2380 fold and the IC50 stood at 42 nM.
The corresponding values for `C[C@H]1CN(S(=O)(=O)N(Cc2ccc(-c3nnc(C(F)F)o3)cn2)c2cccc(Cl)c2)CCN1C` [Compound 11829, (S)—N-(3-chlorophenyl)-N-((5-(5-(difluoromethyl)-1,3,4-oxadiazol-2-yl)pyridin-2-yl)methyl)-3,4-dimethylpiperazine-1-sulfonamide] are 3448 fold and 29 nM.
On to `C[C@H]1CN(S(=O)(=O)N(Cc2ccc(-c3nnc(C(F)F)o3)cn2)c2cccc(Cl)c2)CCN1C1COC1` [Compound 11830, (S)—N-(3-chlorophenyl)-N-((5-(5-(difluoromethyl)-1,3,4-oxadiazol-2-yl)pyridin-2-yl)methyl)-3-methyl-4-(oxetan-3-yl)piperazine-1-sulfonamide], for which, in assay [1], the “HDAC6 selectivity (fold)” value turned out to be 5882 fold and the IC50 was 17 nM.
For the compound `O=S(=O)(N1CCN(C2CCC2)CC1)N(Cc1ccc(-c2nnc(C(F)F)o2)cn1)c1cccc(Cl)c1` [Compound 11831, N-(3-chlorophenyl)-4-cyclobutyl-N-((5-(5-(difluoromethyl)-1,3,4-oxadiazol-2-yl)pyridin-2-yl)methyl)piperazine-1-sulfonamide], in assay [1], the “HDAC6 selectivity (fold)” value came out at 2777 fold and the concentration for half-maximal inhibition (IC50) turned out to be 36 nM.
`O=S(=O)(N1CCN(C2COC2)CC1)N(Cc1ccc(-c2nnc(C(F)F)o2)cn1)c1cccc(Cl)c1` [Compound 11832, N-(3-chlorophenyl)-N-((5-(5-(difluoromethyl)-1,3,4-oxadiazol-2-yl)pyridin-2-yl)methyl)-4-(oxetan-3-yl)piperazine-1-sulfonamide]: in assay [1], the “HDAC6 selectivity (fold)” value worked out at 4761 fold and the concentration for half-maximal inhibition (IC50) is 21 nM.
`Cc1cccc(N(Cc2ccc(-c3nnc(C(F)F)o3)cn2)S(=O)(=O)N2CCN(C3COC3)CC2)c1` [Compound 11833, N-((5-(5-(difluoromethyl)-1,3,4-oxadiazol-2-yl)pyridin-2-yl)methyl)-4-(oxetan-3-yl)-N-(m-tolyl)piperazine-1-sulfonamide]: in assay [1], the “HDAC6 selectivity (fold)” value came out at 2040 fold and the half-maximal inhibitory concentration (IC50) is 49 nM.
